# Source: US6977272B2, “Method for antagonizing inhibition effects of alcohol on cell adhesion” (President and Fellows of Harvard College, priority 2002, dated 2005)
# Where “and” joins values, the source holds several entries; their conditions need not be identical. Equal entries are not always repeated. Where two headings read alike, the source gives them in different places.
# Assays:
# [1] = target: T1, L1-mediated cell-cell adhesion in human L1-transfected NIH/3T3 cells (2B2-L1, 2A2-L1) (Homo sapiens, UniProt P32004); assay: Cell aggregation (cell-cell adhesion) assay in ethanol-sensitive, human L1-transfected NIH/3T3 cells; assay type: cell-based; design: antagonist at the aqueous concentration (μM); Antagonist Activity Butanol % ± SEM; 1-alc; effect of increasing concentrations of 1-butanol on the antagonist activity (in words): dose or concentration left out as unconfirmed; details: for IC50: read-out: IC50 concentration (antagonist, used in FIG. 5A); for effect of increasing concentrations of 1-butanol on the antagonist activity (in words): 2 to […] mM 1-butanol, single antagonist concentration (FIG. 5A, 5B); for antagonist effect at higher concentrations (in words): 2 μM to 10 μM; for antagonist activity against ethanol (in words): test concentrations of FIG. 3 / Table 1; for agonist or antagonist activity (in words): at the ECEQ and at 10 times the ECEQ
# T1 sequence (P32004 whole entry): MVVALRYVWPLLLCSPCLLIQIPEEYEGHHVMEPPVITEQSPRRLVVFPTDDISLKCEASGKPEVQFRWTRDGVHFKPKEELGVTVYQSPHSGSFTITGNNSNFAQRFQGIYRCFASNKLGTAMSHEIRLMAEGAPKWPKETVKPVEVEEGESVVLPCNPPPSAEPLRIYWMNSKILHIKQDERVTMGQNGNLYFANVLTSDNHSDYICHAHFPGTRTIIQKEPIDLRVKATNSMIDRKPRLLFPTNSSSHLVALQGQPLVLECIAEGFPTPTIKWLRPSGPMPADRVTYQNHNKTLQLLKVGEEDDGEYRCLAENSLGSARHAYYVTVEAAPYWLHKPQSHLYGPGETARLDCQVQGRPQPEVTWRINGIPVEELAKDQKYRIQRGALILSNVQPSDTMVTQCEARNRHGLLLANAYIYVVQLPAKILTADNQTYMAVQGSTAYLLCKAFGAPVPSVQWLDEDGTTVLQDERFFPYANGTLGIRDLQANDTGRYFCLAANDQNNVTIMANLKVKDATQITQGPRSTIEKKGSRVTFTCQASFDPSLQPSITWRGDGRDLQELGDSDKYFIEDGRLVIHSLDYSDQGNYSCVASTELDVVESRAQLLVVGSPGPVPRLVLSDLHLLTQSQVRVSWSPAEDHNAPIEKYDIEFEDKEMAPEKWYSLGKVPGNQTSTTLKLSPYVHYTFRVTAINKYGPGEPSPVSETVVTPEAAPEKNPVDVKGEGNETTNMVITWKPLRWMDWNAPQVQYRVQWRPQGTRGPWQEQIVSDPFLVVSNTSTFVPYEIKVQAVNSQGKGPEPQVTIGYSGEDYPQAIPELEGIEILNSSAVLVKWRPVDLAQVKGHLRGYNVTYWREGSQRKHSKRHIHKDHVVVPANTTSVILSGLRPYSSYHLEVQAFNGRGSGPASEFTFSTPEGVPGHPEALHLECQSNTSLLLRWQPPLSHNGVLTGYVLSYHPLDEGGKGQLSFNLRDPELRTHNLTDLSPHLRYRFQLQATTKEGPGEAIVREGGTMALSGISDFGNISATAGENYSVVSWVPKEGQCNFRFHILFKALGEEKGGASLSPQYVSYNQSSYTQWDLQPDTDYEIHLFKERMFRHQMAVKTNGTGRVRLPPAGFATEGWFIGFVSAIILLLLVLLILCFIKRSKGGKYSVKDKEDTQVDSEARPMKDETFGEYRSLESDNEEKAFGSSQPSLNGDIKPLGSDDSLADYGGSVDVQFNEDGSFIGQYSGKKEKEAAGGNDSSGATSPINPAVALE
# Protocol: (§1) NIH/3T3 cells were cultured at 37° C. in Dulbecco's […] Eagle medium (DMEM) (Invitrogen, Carlsbad, Calif.) supplemented with 10% normal calf serum (Intergen, Purchase, N.Y.) and 400 μg/ml G418 (Life Technologies), in an atmosphere of 90% air and 10% CO2. Three subclones were utilized in these studies: 2B2-L1, 2A2-L1 and Vec-1A5.
# Cell adhesion assays were performed in the absence and presence of the compounds, listed below in Table 1. […] The aqueous concentration of each antagonist was calculated to produce membrane concentrations equivalent to 100 mM ethanol. Membrane/buffer partition coefficients (Pm/b) were obtained or calculated from published octanol/water partition coefficients.
# (§2) Cells were detached by gentle agitation in calcium-free and magnesium-free PBS supplemented with 0.1 mg/ml. DNase, mechanically dissociated to obtain a single-cell suspension, and diluted to 350,000 cells/ml. One ml of the cell suspension was added per well (4.5 cm^2) to a 12-well plate. Agonists and test antagonists were added simultaneously, plates were sealed with parafilm to prevent evaporation, and the cells were gently shaken for 30 minutes at room temperature or on ice. Cells were viewed at a final magnification of 200× and each well was scored for single and adherent cells in five to six microscopic fields of view. Approximately 100 cells per field of view and 600 cells per well were counted. The percent of adherent cells was calculated for each microscopic field of view and then averaged for each well.
# Agonists and antagonists were initially tested at aqueous concentrations that were calculated to produce molar membrane concentrations (˜10 mM) equivalent to those produced by an aqueous concentration of 100 mM ethanol (ECEQ).
# L1-mediated cell-cell adhesion was defined as the difference in percent of adherent cells between an L1-transfected cell line (2B2-L1 or 2A2-L1) and a vector-transfected cell line (Vec-1A5).
# Agonists include compounds that inhibit L1-mediated cell-cell adhesion.
# [2] = system: NIH/3T3 cells transfected with an empty vector (Vec-1A5); assay: Aggregation assay on NIH/3T3 cells transfected with an empty vector (non-L1 component of cell adhesion); assay type: cell-based, murine; details: four independent assays, each compound at the concentration given in the source, control 15±1
# Protocol: as §1, §2
# Each candidate antagonist was tested at a single aqueous concentration that was calculated to produce a molar membrane concentration equivalent to that produced by a buffer solution of 100 mM ethanol (ECEQ).
# [3] = obtained from a published source or calculated from published octanol/water partition coefficients (divided by five); cited from earlier work
# [4] = Membrane/buffer partition coefficient (Pm/b); assay type: physicochemical; details: from Pm/b of Table 1
# Protocol: Cell adhesion assays were performed in the absence and presence of the compounds, listed below in Table 1. […] Membrane/buffer partition coefficients (Pm/b) were obtained or calculated from published octanol/water partition coefficients. The compounds are sorted by decreasing membrane/buffer partition coefficients.
# Calculations were based on membrane-buffer partition coefficients (Pm/b), which were obtained from a published source (McCreery and Hunt, 1978) or were derived by dividing the octanol/water partition coefficient by five.
# [5] = target: T1, L1-mediated cell-cell adhesion in human L1-transfected NIH/3T3 cells (2B2-L1, 2A2-L1); design: antagonist at the aqueous concentration (μM); Antagonist Activity Butanol % ± SEM; 1-alc; details: 3-buten-1-ol alone (Wilkemeyer et al., 2000); cited from earlier work
# [6] = EC50 membrane (based on calculated membrane concentrations, expressed relative to 1-pentanol), against 100 mM ethanol, calculated from the Pm/b (FIG. 3)
# [7] = approximate EC50 (against 2 mM 1-butanol), antagonist concentration used in FIG. 5B
# [8] = against 2 mM butanol, linear regression of concentration-response curves (FIG. 4), read-out: aqueous concentration that produced half maximal effect (antagonism)
# [9] = against 2 mM butanol, not adjusted for membrane concentration
compound,measurement,setting,value
1-butanol [reference compound],percent of the maximal agonist response,[1]; 2 mM 1-butanol (FIG. 5A),approximately 90%
same,mean percent inhibition of cell adhesion,"[1]; 2 mM 1-butanol alone, n=11",60±5%
same,mean±S.E.M. percent cell adhesion,[2],13±2%
CCCCCCCCO [1-octanol],EC50,[1],3 µM
same,EC50,[1]; [6],98 µM
same,antagonist potency relative to 1-pentanol,"[1]; FIG. 3 and Wilkemeyer et al., 2000",two hundred-fold more potent
same,EC50,[1]; [7],~5 µM
same,IC50,[1],5 µM
same,mean±S.E.M. percent cell adhesion,[2],12±1%
same,P(m/b) membrane/buffer partition coefficient,[3],189
same,lipid solubility relative to 1-pentanol,[4],thirty-seven-fold more lipid soluble
CC=CCO [2-buten-1-ol],percent inhibition of cell adhesion,"[1]; 15 mM 2-buten-1-ol alone, n=10",34±4%
same,percent inhibition of cell adhesion,"[1]; 15 mM 2-buten-1-ol plus 2 mM 1-butanol, n=11",35+6%
same,antagonism of the actions of 1-butanol and ethanol (in words),[1]; 15 mM (ECEQ) 2-buten-1-ol,partially antagonized
same,inhibition of L1-mediated cell-cell adhesion (in words),[1]; 15 mM (ECEQ) 2-buten-1-ol,partially inhibited
same,antagonism of the actions of 1-butanol or ethanol (in words),[1]; 150 mM 2-buten-1-ol,neither antagonized nor augmented
same,inhibition of L1-mediated cell-cell adhesion (in words),[1]; 150 mM 2-buten-1-ol,maximally inhibited
OCc1ccccc1 [benzyl alcohol],effect of increasing concentrations of 1-butanol on the antagonist activity (in words),[1],eliminated the antagonist activity
same,P(m/b) membrane/buffer partition coefficient,[3],2.52
OC1CCCC1 [cyclopentanol],effect of increasing concentrations of 1-butanol on the antagonist activity (in words),[1],eliminated the antagonist activity
same,P(m/b) membrane/buffer partition coefficient,[3],2.24
CCCCCCCCCCCO [1-undecanol],EC50,[1],0.03 µM
same,EC50,[1]; [6],20 µM
same,P(m/b) membrane/buffer partition coefficient,[3],3810
CCCC(C)(C)O [2-methyl-2-pentanol],effect of increasing concentrations of 1-butanol on the antagonist activity (in words),[1],did not eliminate the antagonist activity
same,P(m/b) membrane/buffer partition coefficient,[3],5.2
CCCCCCCCCCCCCCCO [1-pentadecanol],antagonist effect at higher concentrations (in words),[1],inactive
same,antagonist activity against ethanol (in words),[1]; against 100 mM ethanol,completely inactive
same,antagonist activity against ethanol (in words),"[1]; against 100 mM ethanol, listed as 1-Pentadecanol",no antagonist activity
same,agonist or antagonist activity (in words),[1],neither agonists nor antagonists
same,P(m/b) membrane/buffer partition coefficient,[3],347560
CCCCCO [1-pentanol],EC50,[1],540 µM
same,effect of increasing concentrations of 1-butanol on the antagonist activity (in words),[1],did not eliminate the antagonist activity
same,EC50,[1]; [6],540 µM
same,EC50,[1]; [8],223 µM
same,EC50,[1]; [7],~700 µM
same,mean±S.E.M. percent cell adhesion,[2],16±2%
same,P(m/b) membrane/buffer partition coefficient,[3],5.02
C=CCCO [3-buten-1-ol],IC50,[1]; antagonism of 1-butanol inhibition of cell-cell adhesion,3000 µM
same,EC50,"[1]; read-out: approximate EC50 (against 2 mM 1-butanol), antagonist concentration used in FIG. 5B",~3000 µM
same,mean±S.E.M. percent cell adhesion,[2],14±0%
same,P(m/b) membrane/buffer partition coefficient,[3],1
same,"effect on L1-mediated cell-cell adhesion, compound alone (in words)",[5],no effect
CC(C)CCCO [4-methyl-1-pentanol],effect of increasing concentrations of 1-butanol on the antagonist activity (in words),[1],did not eliminate the antagonist activity
same,EC50,[1]; [8],32 µM
same,ratio of half-maximal aqueous concentrations versus 1-hexanol,[1]; [9],approximately 2.5 times
same,ratio of half-maximal aqueous concentrations versus 1-pentanol,[1]; [9],approximately 7 fold
same,EC50,[1]; [7],~40 µM
same,mean±S.E.M. percent cell adhesion,[2],15±3%
same,P(m/b) membrane/buffer partition coefficient,[3],9.36
CCCC(C)O (stereo not shown) [2-pentanol],effect of increasing concentrations of 1-butanol on the antagonist activity (in words),[1],did not eliminate the antagonist activity
same,P(m/b) membrane/buffer partition coefficient,[3],4.38
CCCCCCCCCCCCCO [1-tridecanol],EC50,[1],0.25 µM
same,EC50,[1]; [6],1620 µM
same,fold less potent antagonist than C12 (1-dodecanol),[1]; against 100 mM ethanol (FIG. 3),approximately 25 fold
same,P(m/b) membrane/buffer partition coefficient,[3],36394
CCCCCCCCCCCCCCO [1-tetradecanol],antagonist effect at higher concentrations (in words),[1],inactive
same,antagonist activity against ethanol (in words),[1]; against 100 mM ethanol,only minimal antagonist activity
same,agonist or antagonist activity (in words),[1],neither agonists nor antagonists
same,P(m/b) membrane/buffer partition coefficient,[3],112468
CCC(C)O (stereo not shown) [2-butanol],antagonist activity (in words),[1]; 11 mM (ECEQ) 2-butanol,no antagonist activity
same,percent inhibition of L1-mediated cell-cell adhesion,"[1]; 11 mM (ECEQ) 2-butanol alone, n=6",63±9%
"C[S+](C)[O-] [dimethyl sulfoxide, reference compound]",inhibition of L1-mediated cell adhesion (in words),[1]; 120 mM (1%) DMSO,did not inhibit
same,agonist or antagonist activity (in words),[1],neither agonists nor antagonists
same,mean±S.E.M. percent cell adhesion,[2],13±0%
same,P(m/b) membrane/buffer partition coefficient,[3],0.012
CCCCCCCO [1-heptanol],P(m/b) membrane/buffer partition coefficient,[3],51.4
"CC(C)c1cccc(C(C)C)c1O [2,6-di-isopropyl phenol, 2,6-di-isopropylphenol, reference compound]",P(m/b) membrane/buffer partition coefficient,[3],1233
"CCO [ethanol, reference compound]",inhibition at 100000 µM,"[1]; NIH3T3, read-out: percent inhibition of L1-mediated cell-cell adhesion",62 ± 7%
CCCCCCCCCCCCO [1-dodecanol],EC50,[1]; [6],140 µM and 28 µM
same,P(m/b) membrane/buffer partition coefficient,[3],26979
CCC(O)CC [3-pentanol],effect of increasing concentrations of 1-butanol on the antagonist activity (in words),[1],eliminated the antagonist activity
same,P(m/b) membrane/buffer partition coefficient,[3],4.69
CCCCCCO [1-hexanol],EC50,[1]; [8],80 µM
CC(O)C1CC1 (stereo not shown) [cyclopropylethanol],agonist or antagonist activity (in words),[1],neither agonists nor antagonists
same,P(m/b) membrane/buffer partition coefficient,[3],0.83
